Reference: PubChem BioAssay AID2124 (Sanford-Burnham Center for Chemical Genomics, 2009)
Results filed as inconclusive are left out. Active and inactive are the calls of the source. How the calls were made is not given here; tested in MIN6 cells.

Key:
[1] = cell-permeable autofluorescent compounds in GFP channel, dose response, artefact control, imaging, high-content imaging (AID 2124); conditions: cells, GFP-channel autofluorescence, high-content imaging; cell count; at 10 µM;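 on cell count: cells exposed to compound for 48 hours before fixing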
[2] = test system: cells, GFP-channel autofluorescence, high-content imaging; experiment: as above

| SMILES | cell count [1] | EC50 [2] |
| --- | --- | --- |
| O=c1oc2c3c4c(cc2c(C(F)(F)F)c1CCN1CCOCC1)CCCN4CCC3 | 3400 cells | 8.25 µM |
| Nc1c(C(=O)Nc2nc3ccccc3s2)sc2nc(-c3cccs3)ccc12 | 217 cells | 8.63 µM |
| CN1CC=C2C(C#N)=C(N)C(C#N)(C#N)C(Cc3ccccc3)C2C1 (stereo unspecified) | 3290 cells | 13.7 µM (inactive) |
| CC(=O)c1c(C)[nH]c(-c2ccccc2)nc1=S | 3120 cells | 2.37 µM |
| CCN(CC)c1ccc(/C=C(/C#N)C(=O)NC(C)C)o1 | 3080 cells | 14.2 µM (inactive) |
| COc1cc(/C=C(\C#N)c2nc3ccccc3o2)ccc1O | 3540 cells | 2.62 µM |
| CCCN1CCc2c(sc(NC(=S)NC(=O)c3ccccc3)c2C#N)C1 | 3200 cells | 13.3 µM (inactive) |
| O=C1c2cccc3c(N4CCCCC4)ccc(c23)C(=O)N1c1ccccc1O | 3140 cells | 15.3 µM (inactive) |
| Cc1cccc(N=Cc2[nH]c3ccc(Br)c(Cl)c3c2O)c1 | 3340 cells | > 16 µM (inactive) |
| COc1cc2c3nnc(-c4ccc(F)cc4)c-3cn(Cc3ccccc3)c2cc1OC | 338 cells | 2.58 µM |
| N#C/C(=C\N1CCN(Cc2ccc3c(c2)OCO3)CC1)c1nc2ccccc2s1 | 3300 cells | 10.7 µM (inactive) |
| CCN1CCc2c(sc(NC(=S)NC(=O)c3ccc(Cl)cc3)c2C(N)=O)C1 | 3040 cells | 6.61 µM |
| CCCN1C(=O)/C(=C/C=C2\N(CC)c3ccccc3C2(C)C)SC1=S | 3030 cells | 2.71 µM |
| CC(=O)n1c(C=Nc2ccccc2)c(O)c2ccccc21 | 3060 cells | 8.96 µM |
| CCN(CC)c1ccc2cc(-c3nc(-c4ccc(OC)cc4)cs3)c(=O)oc2c1 | 2750 cells | > 16 µM (inactive) |
| COc1cccc2sc(NNC(=O)C3=COCCO3)nc12 | 3320 cells | 8.52 µM |
| CCCCn1nc(-c2ccccc2)c2nc3ccccc3nc21 | 3250 cells | 13.8 µM (inactive) |
| Cc1cc(N2CCCC2)ccc1/C=C1/C(=O)N(C)C(=S)N1C | 2940 cells | 7.11 µM |
| CCCCOc1ccc(-c2cc(C(F)(F)F)c(C#N)c(SCC(=O)O)n2)cc1 | 3060 cells | 12.3 µM (inactive) |
| N#C/C(=C\c1ccc(N2CCCCC2)o1)C(N)=O | 3260 cells | 12.2 µM (inactive) |
| COc1ccc(C(=O)/C=C/c2ccc(N(C)C)cc2)c(OC)c1 | 2380 cells | 9.89 µM |
| CCN(CC)c1ccc(/C=C(\C#N)C(=O)c2ccc(Br)cc2)cc1 | 2740 cells | 5.14 µM |
| O=[N+]([O-])c1ccc(N/N=C/c2ccc[nH]2)cc1 | 841 cells | 4.32 µM |
